From patent US10112926B2 (priority 2014, dated 2018)
Where a name gives a salt, the structure may show the parent alone.

biological target: PI 4-kinase beta (Homo sapiens (Human), UniProt Q9UBF8); settings: read-out: Assay D PI4Kβ IC50
Sequence (Q9UBF8 whole entry): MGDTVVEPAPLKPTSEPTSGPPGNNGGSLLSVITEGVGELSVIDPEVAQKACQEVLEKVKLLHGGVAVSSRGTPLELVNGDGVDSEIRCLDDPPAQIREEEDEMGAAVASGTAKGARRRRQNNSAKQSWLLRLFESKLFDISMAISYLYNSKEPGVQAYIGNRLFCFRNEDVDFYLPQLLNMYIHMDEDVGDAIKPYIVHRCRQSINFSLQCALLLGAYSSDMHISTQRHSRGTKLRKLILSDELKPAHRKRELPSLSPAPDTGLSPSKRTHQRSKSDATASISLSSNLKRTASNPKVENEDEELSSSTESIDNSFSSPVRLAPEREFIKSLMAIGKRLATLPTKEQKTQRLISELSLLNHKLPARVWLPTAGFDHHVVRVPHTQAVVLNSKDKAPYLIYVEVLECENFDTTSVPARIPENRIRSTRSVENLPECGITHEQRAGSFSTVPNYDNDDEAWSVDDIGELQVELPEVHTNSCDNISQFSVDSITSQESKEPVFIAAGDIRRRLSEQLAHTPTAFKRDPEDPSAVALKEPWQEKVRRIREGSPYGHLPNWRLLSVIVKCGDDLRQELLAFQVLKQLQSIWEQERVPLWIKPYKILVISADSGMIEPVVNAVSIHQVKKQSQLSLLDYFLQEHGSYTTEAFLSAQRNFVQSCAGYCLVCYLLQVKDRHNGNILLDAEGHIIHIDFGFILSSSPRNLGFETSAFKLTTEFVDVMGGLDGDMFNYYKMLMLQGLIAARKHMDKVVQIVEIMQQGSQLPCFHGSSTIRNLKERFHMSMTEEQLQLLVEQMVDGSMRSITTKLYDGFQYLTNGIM

Compared with `Cc1cc(-c2cc(-c3cc(S(=O)(=O)N4CC5(CCOC5)C4)ccc3C)cnc2N)on1` [Example 19.1, 5-(5-(6-oxa-2-azaspiro[3.4]octan-2-ylsulfonyl)-2-methylphenyl)-3-(3-methylisoxazol-5-yl)pyridin-2-amine trifluoroacetic acid salt], `Cc1cc(-c2cc(-c3cc(S(=O)(=O)N4CCNC(=O)C4)ccc3C)cnc2N)on1` [Example 19.17, 4-((3-(6-amino-5-(3-methylisoxazol-5-yl)pyridin-3-yl)-4-methylphenyl)sulfonyl) piperazin-2-one trifluoroacetic acid salt] is 2.9-fold lower in IC50: 4 µM for the first, 1.4 µM for the second. The second is the more potent here.

First: Cc1cc(-c2cc(-c3cc(S(=O)(=O)N4CCCC4(C)C)ccc3C)cnc2N)on1 [Example 19.9, 5-(5-((2,2-dimethylpyrrolidin-1-yl)sulfonyl)-2-methylphenyl)-3-(3-methylisoxazol-5-yl)pyridin-2-amine trifluoroacetic acid salt]
Second: Cc1cc(-c2cc(-c3cc(S(=O)(=O)N4CCC[C@H]4CO)ccc3C)cnc2N)on1 [Example 19.15, (S)-(1-((3-(6-amino-5-(3-methylisoxazol-5-yl)pyridin-3-yl)-4-methylphenyl)sulfonyl)pyrrolidin-2-yl)methanol trifluoroacetic acid salt]
The IC50 of the first is 2.1-fold higher: 1.9 µM for the first, 0.9 µM for the second. The second is the more potent here.

biological target: Vps34 (Homo sapiens (Human), UniProt Q8NEB9); settings: read-out: Assay C VPS34 IC50
Sequence (Q8NEB9 whole entry): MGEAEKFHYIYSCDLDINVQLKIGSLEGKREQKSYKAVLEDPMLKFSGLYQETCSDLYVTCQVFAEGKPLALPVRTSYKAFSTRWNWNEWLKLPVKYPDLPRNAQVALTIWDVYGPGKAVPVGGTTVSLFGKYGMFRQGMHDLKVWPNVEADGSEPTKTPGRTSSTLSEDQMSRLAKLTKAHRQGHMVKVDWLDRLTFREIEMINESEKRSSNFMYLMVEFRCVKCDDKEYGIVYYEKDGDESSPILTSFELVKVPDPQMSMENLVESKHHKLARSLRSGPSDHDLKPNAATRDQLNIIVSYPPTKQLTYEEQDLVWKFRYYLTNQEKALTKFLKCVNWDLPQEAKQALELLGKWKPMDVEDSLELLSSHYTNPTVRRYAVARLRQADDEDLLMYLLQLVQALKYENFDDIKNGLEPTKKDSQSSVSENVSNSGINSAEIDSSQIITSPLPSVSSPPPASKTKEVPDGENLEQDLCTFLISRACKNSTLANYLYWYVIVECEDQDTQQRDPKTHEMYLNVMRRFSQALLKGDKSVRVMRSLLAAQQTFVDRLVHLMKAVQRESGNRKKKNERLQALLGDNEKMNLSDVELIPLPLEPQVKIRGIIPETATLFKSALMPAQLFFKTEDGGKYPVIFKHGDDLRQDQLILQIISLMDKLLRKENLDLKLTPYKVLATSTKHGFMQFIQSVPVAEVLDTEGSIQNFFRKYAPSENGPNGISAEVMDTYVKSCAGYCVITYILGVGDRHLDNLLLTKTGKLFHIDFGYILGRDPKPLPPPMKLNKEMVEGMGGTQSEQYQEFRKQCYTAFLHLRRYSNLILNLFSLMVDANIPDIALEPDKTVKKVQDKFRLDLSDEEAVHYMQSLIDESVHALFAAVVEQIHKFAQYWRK

`Cc1ncc(-c2cc(-c3cc(S(=O)(=O)NCC(C)(C)O)ccc3C)cnc2N)o1` [Example 6, 3-(6-Amino-5-(2-methyloxazol-5-yl)pyridin-3-yl)-N-(2-hydroxy-2-methylpropyl)-4-methylbenzenesulfonamide] and `Cc1cnc(-c2cc(-c3cc(S(=O)(=O)NCC(C)(C)O)ccc3C)cnc2N)s1` [Example 90, 3-(6-Amino-5-(5-methylthiazol-2-yl)pyridin-3-yl)-N-(2-hydroxy-2-methylpropyl)-4-methylbenzenesulfonamide] cannot be ordered by IC50: greater than 10 µM for the first, greater than 10 µM for the second.

`Cc1cc(-c2cc(-c3cc(S(=O)(=O)N[C@H]4CC[C@H](N)CC4)ccc3C)cnc2N)on1` [Example 19.3, 3-(6-amino-5-(3-methylisoxazol-5-yl)pyridin-3-yl)-N-(trans-4-aminocyclohexyl)-4-methylbenzenesulfon-amide acetic acid salt] and `Cc1cc(-c2cc(-c3cc(S(=O)(=O)NC4CCOCC4)ccc3C)cnc2N)on1` [Example 37.8, 3-(6-Amino-5-(3-methylisoxazol-5-yl)pyridin-3-yl)-4-methyl-N-(tetrahydro-2H-pyran-4-yl)benzenesulfonamide] cannot be ordered by IC50: greater than 10 µM for the first, greater than 10 µM for the second.

`Cc1cc(-c2cc(-c3cc(S(=O)(=O)N[C@@H]4CNC[C@H]4O)ccc3C)cnc2N)on1` [Example 19.4, 3-(6-amino-5-(3-methylisoxazol-5-yl)pyridin-3-yl)-N-(trans-4-hydroxypyrrolidin-3-yl)-4-methylbenzenesulfon-amide acetic acid salt] and `Cc1cc(-c2cc(-c3cc(S(=O)(=O)NCC4(O)CC4)ccc3C)cnc2N)on1` [Example 19.10, 3-(6-amino-5-(3-methylisoxazol-5-yl)pyridin-3-yl)-N-((1-hydroxycyclopropyl)methyl)-4-methylbenzenesulfon-amide trifluoroacetic acid salt] cannot be ordered by IC50: greater than 10 µM for the first, greater than 10 µM for the second.

`Cc1cc(-c2cc(-c3cc(S(=O)(=O)N4CCOC[C@@H]4C)ccc3C)cnc2N)on1` [Example 19.5, (S)-5-(2-methyl-5-((3-methylmorpholino)sulfon-yl)phenyl)-3-(3-methylisoxazol-5-yl)pyridin-2-amine trifluoroacetic acid salt] and `Cc1cc(-c2cc(-c3cc(S(=O)(=O)N4CCOC[C@H]4C)ccc3C)cnc2N)on1` [Example 19.6, (R)-5-(2-methyl-5-((3-methylmorpholino)sulfon-yl)phenyl)-3-(3-methylisoxazol-5-yl)pyridin-2-amine trifluoroacetic acid salt] cannot be ordered by IC50: greater than 10 µM for the first, greater than 10 µM for the second.

`Cc1cc(-c2cc(-c3cc(S(=O)(=O)N4CCCC(C)(O)CC4)ccc3C)cnc2N)on1` (stereo not drawn) [Example 19.21, 1-((3-(6-amino-5-(3-methylisoxazol-5-yl)pyridin-3-yl)-4-methylphenyl)sulfonyl)-4-methylazepan-4-ol trifluoroacetic acid salt] and `Cc1cc(-c2cc(-c3cc(S(=O)(=O)N4CC[C@@H](O)C4)ccc3C)cnc2N)on1` [Example 37.24, (R)-1-((3-(6-Amino-5-(3-methylisoxazol-5-yl)pyridin-3-yl)-4-methylphenyl)sulfonyl)pyrrolidin-3-ol] cannot be ordered by IC50: greater than 10 µM for the first, greater than 10 µM for the second.

`Cc1ccc(S(=O)(=O)NOCC(C)(C)O)cc1-c1cnc(N)c(-c2cnn(CC(F)(F)F)c2)c1` [Example 34, 3-(6-Amino-5-(1-(2,2,2-trifluoroethyl)-1H-pyrazol-4-yl)pyridin-3-yl)-N-(2-hydroxy-2-methylpropoxy)-4-methylbenzenesulfonamide hydrochloride] and `Cc1ccc(S(=O)(=O)NCC(C)(C)O)cc1-c1cnc(N)c(-c2cnco2)c1` [Example 94a, 3-(6-amino-5-(oxazol-5-yl)pyridin-3-yl)-N-(2-hydroxy-2-methylpropyl)-4-methylbenzenesulfonamide] cannot be ordered by IC50: greater than 10 µM for the first, greater than 10 µM for the second.

`Cc1cc(-c2cc(-c3cc(S(=O)(=O)NCC4(O)CCCCC4)ccc3C)cnc2N)on1` [Example 37.9] and `Cc1cc(-c2cc(-c3cc(S(=O)(=O)NCC4(O)CCCC4)ccc3C)cnc2N)on1` [Example 53, 3-(6-Amino-5-(3-methylisoxazol-5-yl)pyridin-3-yl)-N-((1-hydroxycyclopentyl)methyl)-4-methylbenzenesulfonamide] cannot be ordered by IC50: greater than 10 µM for the first, greater than 10 µM for the second.

`Cc1cc(-c2cc(-c3cc(S(=O)(=O)NCCC4(O)CCCC4)ccc3C)cnc2N)on1` [Example 37.16, 3-(6-Amino-5-(3-methylisoxazol-5-yl)pyridin-3-yl)-N-(2-(1-hydroxycyclopentyl)ethyl)-4-methylbenzenesulfonamide] and `Cc1cc(-c2cc(-c3cc(S(=O)(=O)NCCC4(O)CCCCC4)ccc3C)cnc2N)on1` [Example 37.30, 3-(6-Amino-5-(3-methylisoxazol-5-yl)pyridin-3-yl)-N-(2-(1-hydroxycyclohexyl)ethyl)-4-methylbenzenesulfonamide] cannot be ordered by IC50: greater than 10 µM for the first, greater than 10 µM for the second.

`Cc1cc(-c2cc(-c3cc(S(=O)(=O)NCC4(CO)CCCC4)ccc3C)cnc2N)on1` [Example 37.23, 3-(6-Amino-5-(3-methylisoxazol-5-yl)pyridin-3-yl)-N-((1-(hydroxymethyl)cyclopentyl)methyl)-4-methylbenzenesulfonamide] and `Cc1cc(-c2cc(-c3cc(S(=O)(=O)NCC4(CO)COC4)ccc3C)cnc2N)on1` [Example 50, 3-(6-Amino-5-(3-methylisoxazol-5-yl)pyridin-3-yl)-N-((3-(hydroxymethyl)oxetan-3-yl)methyl)-4-methylbenzenesulfonamide] cannot be ordered by IC50: greater than 10 µM for the first, greater than 10 µM for the second.

`CCN1CCC[C@@H]1CNS(=O)(=O)c1ccc(C)c(-c2cnc(N)c(-c3cc(C)no3)c2)c1` [Example 37.27, (R)-3-(6-Amino-5-(3-methylisoxazol-5-yl)pyridin-3-yl)-N-((1-ethylpyrrolidin-2-yl)methyl)-4-methylbenzenesulfonamide] and `CCN1CCC[C@H]1CNS(=O)(=O)c1ccc(C)c(-c2cnc(N)c(-c3cc(C)no3)c2)c1` [Example 37.33, (S)-3-(6-Amino-5-(3-methylisoxazol-5-yl)pyridin-3-yl)-N-((1-ethylpyrrolidin-2-yl)methyl)-4-methylbenzenesulfonamide] cannot be ordered by IC50: greater than 10 µM for the first, greater than 10 µM for the second.

First: Cc1cc(-c2cc(-c3cc(S(=O)(=O)NCC4(O)CCOCC4)ccc3C)cnc2N)on1 [Example 54, 3-(6-Amino-5-(3-methylisoxazol-5-yl)pyridin-3-yl)-N-((4-hydroxytetrahydro-2H-pyran-4-yl)methyl)-4-methylbenzenesulfonamide]
Second: Cc1ncc(-c2cc(-c3cc(S(=O)(=O)NCC4(CO)COC4)ccc3C)cnc2N)o1 [Example 67, 3-(6-Amino-5-(2-methyloxazol-5-yl)pyridin-3-yl)-N-((3-(hydroxymethyl)oxetan-3-yl)methyl)-4-methylbenzenesulfonamide]
The IC50 of the first is higher: greater than 10 µM for the first, 9.5 µM for the second. The second is the more potent here.

First: Cc1ccc(S(=O)(=O)NCC(C)(C)O)cc1-c1cnc(N)c(-c2cnn(C)c2C)c1 [Example 61, 3-(6-Amino-5-(1,5-dimethyl-1H-pyrazol-4-yl)pyridin-3-yl)-N-(2-hydroxy-2-methylpropyl)-4-methylbenzenesulfonamide]
Second: Cc1ncc(-c2cc(-c3cc(S(=O)(=O)NCCCO)ccc3C)cnc2N)o1 [Example 104.6, 3-(6-amino-5-(2-methyloxazol-5-yl)pyridin-3-yl)-N-(3-hydroxypropyl)-4-methylbenzenesulfon-amide]
The IC50 of the first is higher: greater than 10 µM for the first, 1.9 µM for the second.

Going from `Cc1ncc(-c2cc(-c3cc(S(=O)(=O)NCC4(CO)COC4)ccc3C)cnc2N)s1` [Example 68, 3-(6-Amino-5-(2-methylthiazol-5-yl)pyridin-3-yl)-N-((3-(hydroxymethyl)oxetan-3-yl)methyl)-4-methylbenzenesulfonamide] to `Cc1ncc(-c2cc(-c3cc(S(=O)(=O)NCC(F)F)ccc3C)cnc2N)o1` [Example 104.10, 3-(6-amino-5-(2-methyloxazol-5-yl)pyridin-3-yl)-N-(2,2-difluoroethyl)-4-methylbenzenesulfon-amide], the IC50 falls from 8.4 µM to 1.5 µM (5.6-fold).

Compared with `Cc1noc(-c2cc(-c3cc(S(=O)(=O)NC[C@H]4CCOC4)ccc3C)cnc2N)n1` [Example 86, (R)-3-(6-Amino-5-(3-methyl-1,2,4-oxadiazol-5-yl)pyridin-3-yl)-4-methyl-N-((tetrahydrofuran-3-yl)methyl)benzenesulfonamide], `Cc1ncc(-c2cc(-c3cc(S(=O)(=O)NCC4CC(O)C4)ccc3C)cnc2N)o1` (stereo not drawn) [Example 104.1, 3-(6-amino-5-(2-methyloxazol-5-yl)pyridin-3-yl)-N-((3-hydroxycyclobutyl)methyl)-4-methylbenzenesulfon-amide] is lower in IC50: greater than 10 µM for the first, 1.1 µM for the second. The second is the more potent here.

`Cc1noc(-c2cc(-c3cc(S(=O)(=O)NCC(C)(C)O)c(Cl)cc3C)cnc2N)n1` [Example 89, 5-(6-Amino-5-(3-methyl-1,2,4-oxadiazol-5-yl)pyridin-3-yl)-2-chloro-N-(2-hydroxy-2-methylpropyl)-4-methylbenzenesulfonamide] showed an IC50 greater than 10 µM.
